Entries after “also recorded” stand apart in the source; their conditions may differ.
Columns and labels:
Chitin synthase = conditions: competitive substrate inhibitors of chitin synthase; cited from earlier work
T. brucei PGI = T. brucei PGI (Trypanosoma brucei brucei, UniProt P13377); conditions: cited from earlier work
Yeast PGI = Yeast PGI (Saccharomyces cerevisiae, UniProt P12709); conditions: cited from earlier work
[1] = molecular target: yeast phosphoglucose isomerase (Saccharomyces cerevisiae, UniProt P12709); conditions: cited from earlier work
[2] = molecular target: T. brucei phosphoglucose isomerase (Trypanosoma brucei brucei, UniProt P13377); conditions: cited from earlier work
[3] = molecular target: Rabbit phosphoglucose isomerase (Oryctolagus cuniculus, UniProt Q9N1E2); conditions: low ionic strength, cited from earlier work
[4] = tested on: A. fumigatus phosphoglucose isomerase, ketol-isomerase, and N-acetyltransferase; experiment: Colorimetric CoA(GlcNAc-6-P) formation assay in crude A. fumigatus lysates; format: biochemical, Aspergillus fumigatus; conditions: added to crude A. fumigatus lysates, FIG. 5
Procedure: A. fumigatus ATCC16424 (a human clinical isolate) was inoculated into liquid YG medium [1% (w/v) yeast extract and 1% (w/v) glucose] with 1×10^7 conidia per/mL (final concentration), and incubated for 18 hours at 37° C. with shaking (250 rpm). Hyphae were harvested by vacuum filtration over Whatman No. 2 filter paper, washed twice with ice-cold water, quick-frozen in dry ice, and stored at −80° C.
Frozen A. fumigatus hyphae were thawed and disrupted by bead-beating (6×30 seconds pulses with 2 minutes cooling between each pulse) using 0.5 mm zirconium beads in KI buffer (600 mM sucrose, 1 mM KCl, 1 mM EDTA, 50 mM PIPES, pH 6.8). The lysates were centrifuged at 1,000×g for 10 minutes at 4° C. The supernatants were stored at −80° C. and used as enzyme sources. The protein concentration of the supernatants was determined using the BioRad protein assay kit.
Reactions were performed in 96-well flat bottom microtiter plates containing 10 mM Glc-6-P, 10 mM glutamine, 200 μM AcCoA, and 0.25 mg/mL cell lysate of A. fumigatus at pH 6.8 in a final volume of 50 μL. […] After incubation for 10 minutes at room temperature, the OD412 was measured using a microtiter plate reader. […] The amount of CoA formed by reaction mixtures was calculated from the standard curve. […]

[5] = competitive inhibitor, low ionic strength, read-out: Gluconate-6-P Ki
[6] = read-out: Fru-6-P Km, low ionic strength

Chain of T. brucei PGI (P13377 whole entry): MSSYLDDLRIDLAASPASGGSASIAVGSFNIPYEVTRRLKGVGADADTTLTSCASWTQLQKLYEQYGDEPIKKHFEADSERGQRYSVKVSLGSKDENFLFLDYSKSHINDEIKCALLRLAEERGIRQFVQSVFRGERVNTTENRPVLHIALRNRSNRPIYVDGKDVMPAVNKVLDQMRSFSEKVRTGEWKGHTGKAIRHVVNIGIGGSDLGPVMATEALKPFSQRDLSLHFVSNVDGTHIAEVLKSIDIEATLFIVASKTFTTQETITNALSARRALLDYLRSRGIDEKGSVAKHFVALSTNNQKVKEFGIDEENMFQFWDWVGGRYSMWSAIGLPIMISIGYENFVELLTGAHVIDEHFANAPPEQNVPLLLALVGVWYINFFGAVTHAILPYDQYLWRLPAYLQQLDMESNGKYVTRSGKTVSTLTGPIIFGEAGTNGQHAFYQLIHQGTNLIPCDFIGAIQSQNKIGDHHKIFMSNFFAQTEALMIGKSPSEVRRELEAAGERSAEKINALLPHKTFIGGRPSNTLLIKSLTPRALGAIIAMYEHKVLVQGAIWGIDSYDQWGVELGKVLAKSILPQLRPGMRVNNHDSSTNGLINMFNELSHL
Chain of Yeast PGI (P12709 2-554): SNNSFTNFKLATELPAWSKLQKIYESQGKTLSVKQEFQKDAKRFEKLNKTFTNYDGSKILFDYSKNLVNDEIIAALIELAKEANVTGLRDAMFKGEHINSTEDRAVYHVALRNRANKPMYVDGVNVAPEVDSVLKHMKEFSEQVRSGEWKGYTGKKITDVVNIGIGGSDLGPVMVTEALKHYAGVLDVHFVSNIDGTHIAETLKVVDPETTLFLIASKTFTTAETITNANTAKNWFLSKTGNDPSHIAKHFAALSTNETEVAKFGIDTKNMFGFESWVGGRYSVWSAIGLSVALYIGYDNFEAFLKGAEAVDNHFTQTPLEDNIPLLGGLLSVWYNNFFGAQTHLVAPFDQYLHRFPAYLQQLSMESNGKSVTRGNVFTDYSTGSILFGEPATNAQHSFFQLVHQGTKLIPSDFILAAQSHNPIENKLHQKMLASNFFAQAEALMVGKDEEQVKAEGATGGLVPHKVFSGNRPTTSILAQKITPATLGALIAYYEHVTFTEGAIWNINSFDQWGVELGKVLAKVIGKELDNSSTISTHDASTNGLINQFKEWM
Chain of yeast phosphoglucose isomerase (P12709 2-554): as above
Chain of T. brucei phosphoglucose isomerase (P13377 whole entry): as the sequence (P13377 whole entry) above

## polyoxins
Chitin synthase
  inhibition constants (Ki): in the μM range

## O=C(NO)[C@@H](O)[C@H](O)[C@H](O)COP(=O)(O)O [D-Arabinohydroxamic acid-5-phosphate]
T. brucei PGI; T. brucei PGI
  Ki: 50 ± 9 nM
  Km/Ki: 2060
T. brucei PGI; T. brucei versus yeast
  specificity for T. brucei phosphoglucose isomerase versus yeast isomerase: 4.6 fold
Yeast PGI
  Ki: 230 ± 20 nM
  Km/Ki: 300

## O=C(O)[C@H](O)[C@@H](O)[C@H](O)[C@H](O)COP(=O)(O)O [Gluconate-6-P, gluconate-6-phosphate]
[1]; [5]
  Ki: 480 ± 120 µM
[2]; [5]
  Ki: 140 ± 30 µM
[3]; competitive inhibitor, read-out: Gluconate-6-P Ki
  Ki: 120 ± 30 µM
[4]
  inhibition of CoA (GlcNAc-6-P) formation: inhibited the formation of CoA (GlcNAc-6-P) in a dose-dependent manner; also recorded: inhibited the production of CoA in a dose dependent manner

## uridine diphosphate-N-acetyl glucosamine [UDP-GlcNAc]
[4]
  inhibition of CoA (GlcNAc-6-P) formation: inhibited the formation of CoA (GlcNAc-6-P) in a dose-dependent manner; also recorded: inhibited the production of CoA in a dose dependent manner

## O=C(CO)[C@@H](O)[C@H](O)[C@H](O)COP(=O)(O)O [Fru-6-P, fructose-6-phosphate]
[1]; [6]
  Km: 167 ± 48 µM
[2]; [6]
  Km: 122 ± 45 µM
[3]; read-out: Fru-6-P Km
  Km: 119 ± 28 µM

— US6743598B2, “Methods for the identification of fungal glucose utilization inhibitors and antifungal agents” (priority 2001, dated 2004)
